Reference: patent US11096934B2, “Compounds and methods useful for treating or preventing hematological cancers” (THE BROAD INSTITUTE, INC., priority 2015, dated 2021)

Key:
[1] = molecular target: recombinant human DHODH protein (Homo sapiens, UniProt Q02127); assay: In vitro DHODH enzyme inhibition assay; assay type: biochemical; settings: in words
[2] = tested on: Lys-GFP-ER-HoxA9 cells; assay: Myeloid differentiation assay in Lys-GFP-ER-HoxA9 cells (GFP / CD11b flow cytometry); settings: for myeloid differentiation: ER-HoxA9 cellular differentiation assay, in words; for effect of uridine supplementation of the media on differentiation: uridine rescue, also U937 and THP1
Experimental: (See Example 20 for assay details.) After four days of compound treatment, cells were assessed by high-throughput flow cytometry for viability based on forward and side-scatter properties, and for differentiation as determined by the endogenous expression of GFP and cell-surface expression of CD11b (APC fluorescence, FIG. 2C).
The cell line used was ERHoxA9 myeloblast cell line. […] Removal of beta-estradiol from the culture media inactivates ERHoxA9 and the cells are freed from the HoxA9-differentiation arrest and undergo normal myeloid differentiation.
Cells were cultured in RPMI (Cellgro) supplemented with 10% fetal bovine serum (Serum Source Int'l), penicillin/streptomycin, L-glutamine (Omega Scientific), 5% conditioned media containing stem cell factor (SCF), and 0.5 μM beta-estradiol (Sigma). On day 1, 25 μL of complete media supplemented with 0.04% Pluronic F-68 (GIBCO) was added to a sterile 384 well culture plate (Greiner) followed by the addition of 0.2 μL of test compound in DMSO (Sigma). Wells contained complete media supplemented with Pluronic F-68 and the 5 μM of the estrogen receptor antagonist fulvestrant that served as a positive control for differentiation. 25 μL of cells (1.2×10^5/ml) in complete media were added and the plates were incubated (37° C./5% CO2) for 4 days. Final concentrations of components were 3,000 cells/well, 4 μM test compound, and 0.4% DMSO.
On day 5, plates were harvested as follows: 5 μL of an antibody/bead solution consisting of a 1:100 dilution of APC-conjugated anti-mouse CD11b (eBioscience, cloneM1/70) and a 1/500 dilution of polystyrene beads (Spherotech) were added to wells and the plates were incubated for 20 min prior to sampling using the HyperCyt® high throughput flow cytometry platform.
Cells were cultured in RPMI (Cellgro) supplemented with 10% fetal bovine serum (Serum Source Int'l), penicillin/streptomycin, L-glutamine (Omega Scientific), 5% conditioned media containing stem cell factor (SCF), and 0.5 μM beta-estradiol (Sigma, E2758). On day 1, 25 μL of complete media supplemented with 0.04% Pluronic F-68 (GIBCO) was added to a sterile 384 well culture plate (Greiner) followed by the addition of 0.2 μL of compound dilution arrays in DMSO. Some wells contained complete media supplemented with Pluronic F-68 and 5 μM of the estrogen receptor antagonist fulvestrant that served as a positive control for differentiation. 25 μL of cells (1.2×10^5/ml) in complete media were added and the plates were incubated (37° C./5% CO2) for 4 days. Final concentrations of components were 3,000 cells/well and 0.4% DMSO.

[3] = tested on: Lys-GFP-ER-HoxA9 cells; assay: Cellular metabolite analysis after DHODH inhibition in vitro; assay type: cell-based, murine; settings: 48 hours treatment
Excerpt: DHODH catalyzes the conversion of dihydroorotate (DHO) to orotate in the endogenous synthesis of uridine monophosphate (UMP, FIG. 5A).

[4] = tested on: protein O-GlcNAc modification; assay: Immunoblot of protein O-GlcNAc modification; assay type: cell-based
Excerpt: FIG. 5E is an immunoblot.
DHODH and OMPD inhibitors lead to depletion of uridine and to myeloid differentiation in model systems. […] (See, Example 24.) Without intending to be bound by theory, part of the differentiation effect may be due to depletion of UDP-GlcNAc leading to decreased O-linked N-acetylglycosylation (GlcNAc) post-translational modification of proteins.

[5] = Solubility; assay type: physicochemical
Experimental: Solubility was determined in phosphate buffered saline (PBS) pH 7.4 with 1% DMSO. Each compound was prepared in duplicate at 100 μM in both 100% DMSO and PBS with 1% DMSO. Compounds were allowed to equilibrate at room temperature with a 250 rpm orbital shake for 24 hours. After equilibration, samples were analyzed by UPLC-MS (Waters, Milford, Mass.) with compounds detected by SIR detection on a single quadrupole mass spectrometer. The DMSO samples were used to create a two point calibration curve to which the response in PBS was fit.

[6] = Bioavailability; settings: in vivo
[7] = tested on: HoxA9-Meis1 leukemia cells; assay: Syngeneic HoxA9 and Meis1-driven model of AML
Excerpt: To address the anti-leukemic and differentiation effect of DHODH inhibition in vivo, we chose a syngeneic retroviral transduction model of AML. In this model, bone marrow cells are transduced with MSCV-based retrovirus expressing both HoxA9 and Meis1 oncoproteins and introduced intravenously into recipient mice that have been pre-conditioned with a sub-lethal dose of radiation. Mice that developed acute myeloid leukemia were sacrificed and bone marrow cells were expanded in vitro in media supplemented with SCF and IL-3. To permit easy tracking in vivo, leukemic cells were transduced with lentivirus expressing the Venus fluorescent protein, and double-sorted by fluorescence activated cell sorting (FACS) to purity. These Venus-expressing cultured leukemic cells were re-transplanted into pre-conditioned secondary recipient mice, and these secondary recipients were used in all described experiments. […] Mice were treated at six dosages: (1) vehicle Q2D, (2) BRQ 5 mg/kg Q2D, (3) BRQ 10 mg/kg Q2D, (4) BRQ 25 mg/kg Q2D, (5) vehicle days 1+4 of a 7-day schedule or (6) BRQ 25 mg/kg days 1+4 of a 7-day schedule. Scheduled interim euthanasia and leukemia analyses were performed at two planned time points (FIG. 6A).

[8] = tested on: acute promyelocytic leukemia (APL); settings: ATRA incorporated into treatment regimens; from 20%; cited from earlier work
[9] = tested on: U937 cells; assay: Differentiation (CD11b upregulation) in U937 human leukemia cell line; assay type: cell-based
Experimental: (§1) The THP-1 and U937 human leukemic cell lines were used within the same procedure as in the primary assay, except using human leukemic cell lines. These are factor-independent cell lines and estrogen-independent cell lines, such that cells were grown simply in RPMI supplemented with 10% fetal bovine serum.

[10] = tested on: THP1 cells; assay: Differentiation (CD11b upregulation) in THP1 human leukemia cell line; assay type: cell-based
Experimental: as §1

[11] = Plasma protein binding; assay type: in vitro ADME; settings: consistent with published literature
Experimental: Plasma protein binding was determined by equilibrium dialysis using the Rapid Equilibrium Dialysis (RED) device (Pierce Biotechnology, Rockford, Ill.) for both human and mouse plasma. Each compound was prepared in duplicate at 5 μM in plasma (0.95% acetonitrile, 0.05% DMSO) and added to one side of the membrane (200 μl) with PBS pH 7.4 added to the other side (350 μl). Compounds were incubated at 37° C. for 5 hours with a 250 rpm orbital shake. After incubation, samples were analyzed by UPLC-MS (Waters, Milford, Mass.) with compounds detected by SIR detection on a single quadrupole mass spectrometer.

[12] = tested on: organ rejection; settings: in vivo; cited from earlier work
[13] = tested on: leukemia initiating cells; assay: Leukemia-initiating cell activity (transplant of FACS-purified leukemia cells into tertiary recipients); assay type: in vivo, mice
Excerpt: Leukemic cells isolated from the BRQ-treated mice were more differentiated on the basis of their CD11b and Gr-1 cell-surface expression (FIGS. 6C, 6D). To assess their morphology as well as their functional potential as leukemia initiating cells, live Venus-positive leukemic cells were freshly isolated from vehicle or BRQ-treated mice by fluorescence-activated cell sorting (FACS).
FACS-purified leukemia cells from vehicle or BRQ-treated mice were re-introduced into sub-lethally irradiated tertiary recipient mice. The experiment was performed twice: from mice that received BRQ 25 mg/kg every other day for 4 doses (FIG. 7B, left panel), and from mice that received BRQ day 1+4 of a 7-day cycle for a total of 6 doses (FIG. 7B, right panel).

[14] = tested on: DHODH activity; assay: Plasma uridine and dihydroorotate (DHO) after brequinar dosing; assay type: in vivo, murine
Experimental: DHODH catalyzes the conversion of dihydroorotate (DHO) to orotate in the endogenous synthesis of uridine monophosphate. Inhibition of DHODH activity results in dihydroorotate accumulation and uridine depletion.
Plasma uridine levels were analyzed at various times thereafter (FIG. 8). […] Patient-specific dosing will be accomplished by adjusting the dose of DHODH inhibitor based on the patient's metabolism. This will involve adjusting the dosage based on the measurement of plasma DHO.

[15] = Brequinar plasma concentration after a single IP dose; settings: mouse, FIG. 4E, read-out: half-life in vivo (converted)
[16] = molecular target: panel of >400 known kinases; assay: DiscoverX KinomeScan kinase panel; assay type: binding
[17] = tested on: THP1 cells; assay: THP-1 subcutaneous xenograft model of AML; assay type: in vivo, SCID mice
Excerpt: THP1 cells were implanted subcutaneously into the flank of SCID mice, and allowed 10 days to engraft to tumor size of ˜40 mm^2.

[18] = tested on: wild-type C57B1/6 mice; settings: C57B1/6, mouse, in vivo, 6 days
[19] = tested on: wild-type C57B1/6 mice; assay: Maximum tolerated dose (MTD) evaluation; settings: doses higher than 15 mg/kg, after 6 days of daily dosing; reversible
[20] = 5 mg/kg or 10 mg/kg every other day
[21] = 25 mg/kg day 1+4 of a 7-day schedule
[22] = 25 mg/kg day 1+4 of a 7-day schedule, 6 doses

Chain of recombinant human DHODH protein (Q02127 whole entry): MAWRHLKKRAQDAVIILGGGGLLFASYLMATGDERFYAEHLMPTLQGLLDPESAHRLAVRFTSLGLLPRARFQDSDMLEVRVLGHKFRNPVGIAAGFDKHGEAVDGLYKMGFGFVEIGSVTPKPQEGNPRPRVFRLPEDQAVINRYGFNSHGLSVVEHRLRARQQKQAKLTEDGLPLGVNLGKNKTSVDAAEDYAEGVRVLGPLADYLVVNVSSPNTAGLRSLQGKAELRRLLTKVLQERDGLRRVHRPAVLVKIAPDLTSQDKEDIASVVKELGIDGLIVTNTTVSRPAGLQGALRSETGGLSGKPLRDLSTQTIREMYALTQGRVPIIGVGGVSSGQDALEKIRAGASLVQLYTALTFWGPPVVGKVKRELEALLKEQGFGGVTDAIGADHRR

C/C(O)=C(\C#N)C(=O)Nc1ccc(C(F)(F)F)cc1 [teriflunomide, (2Z)-2-cyano-3-hydroxy-N-[4-(trifluoromethyl)phenyl]but-2-enamide]
DHODH enzyme inhibition [1]: active
myeloid differentiation [2]: active

O=C(CCNC(=O)c1ccc(OC(F)(F)F)cc1)N[C@@H]1CCCc2ccccc21 [ML390]
DHODH enzyme inhibition [1]: DHODH was confirmed as the target
accumulation of dihydroorotate [3]: > 500 fold
uridine and downstream metabolites [3]: depletion of uridine and other downstream metabolites
effect of uridine supplementation of the media on differentiation [2]: abrogated the differentiation effect
protein O-GlcNAc modification [4]: global reduction of protein O-GlcNAc modification
solubility [5]: low
bioavailability [6]: low

Nc1ccn([C@@H]2O[C@H](CO)[C@@H](O)[C@@H]2O)c(=O)n1 [cytarabine]
myeloid differentiation [2]: cytotoxicity without differentiation

O=C(CCNC(=O)c1ccc(Cl)cc1)N[C@@H]1CCCc2ccccc21 [(R)-C07]
DHODH enzyme inhibition [1]: inhibitors of DHODH
myeloid differentiation [2]: triggered myeloid differentiation
effect of uridine supplementation of the media on differentiation [2]: abrogated the differentiation effect

Cc1c(-c2ccc(-c3ccccc3F)cc2)nc2ccc(F)cc2c1C(=O)O [brequinar sodium]
DHODH enzyme inhibition [1]: active
myeloid differentiation [2]: active

COc1cccc2c1C(=O)c1c(O)c3c(c(O)c1C2=O)C[C@@](O)(C(C)=O)C[C@@H]3O[C@H]1C[C@H](N)[C@H](O)[C@H](C)O1 [daunorubicin]
myeloid differentiation [2]: cytotoxicity without differentiation

Cc1oncc1C(=O)Nc1ccc(C(F)(F)F)cc1 [leflunomide, 5-methyl-N-[4-(trifluoromethyl)phenyl]-isoxazole-4-carboxamide]
myeloid differentiation [2]: active
leukemic burden ([7]; 25 mg/kg daily): did not result in a reduction in leukemic burden
expression of the differentiation marker CD11b ([7]; 25 mg/kg daily (highest dosage)): very mild increase

CC1=C(/C=C/C(C)=C/C=C/C(C)=C/C(=O)O)C(C)(C)CCC1 [ATRA, all-trans retinoic acid]
overall survival of patients with APL [8]: 75%

O=C(O)c1cccnc1Nc1ccc(Cl)cc1 [Compound C03]
DHODH enzyme inhibition [1]: inhibitors of DHODH
myeloid differentiation [2]: triggered myeloid differentiation
effect of uridine supplementation of the media on differentiation [2]: abrogated the differentiation effect
differentiation (upregulation of CD11b expression) [9]: promoted differentiation
differentiation (upregulation of CD11b expression) [10]: promoted differentiation

NC(=O)c1[nH]nc([C@@H]2O[C@H](CO)[C@@H](O)[C@H]2O)c1O [pyrazofurin]
myeloid differentiation [2]: phenocopied the differentiation effect of DHODH inhibition
effect of uridine supplementation of the media on differentiation [2]: abrogated the differentiation effect

CN(Cc1cnc2nc(N)nc(N)c2n1)c1ccc(C(=O)N[C@@H](CCC(=O)O)C(=O)O)cc1 [methotrexate]
myeloid differentiation [2]: cytotoxicity without differentiation

Cc1c(-c2ccc(-c3ccccc3F)cc2)nc2ccc(F)cc2c1C(=O)O [brequinar, 6-fluoro-2-(2′-fluoro-[1,1′-biphenyl]-4-yl)-3-methyl-quinoline-4-carboxylic acid]
protein-bound [11]: 98-99%
prevention of organ rejection [12]: effective in preventing organ rejection
morphology of leukemic cells isolated from treated mice ([13]; Wright-Giemsa cytospin): morphologic granulocytic differentiation
leukemia development in recipients of leukemic cells from treated donors ([13]; donors: 25 mg/kg every other day 4 doses, or day 1+4 of 7-day cycle 6 doses, both cases): took longer to develop symptoms of leukemia
change in DHO levels, IP versus PO administration ([14]; FIG. 11): similar
time until DHO levels undetectable again ([14]; single 25 mg/kg dose): ≤ 72 h
time to rebound of plasma uridine ([14]; single dose 25 mg/kg): about 48 hours
increase in ED50 ([2]; cells cultured in 50% FBS): ~2 fold
myeloid differentiation effect in vitro ([2]; pulses that lasted fewer than 48-hours): almost no effect
half-life [15]: ~12 h
protein O-GlcNAc modification [4]: global reduction of protein O-GlcNAc modification
survival [7, 20]: prolongation of survival
tolerability [7, 20]: well tolerated without hematologic toxicity or weight loss
differentiation markers on leukemic cells ([7]; 25 mg/kg Q2D for four doses): upregulation of differentiation markers CD11b (Mac-1) and Gr-1 (Ly6C/G)
leukemic involvement of bone marrow, spleen and peripheral blood ([7]; 25 mg/kg Q2D for four doses): dramatic decrease in the leukemic involvement of their bone marrow, spleen, and peripheral blood
side effects ([7]; 25 mg/kg Q2D for four doses): weight loss, anemia, and thrombocytopenia
time off treatment until relapse with leukemia ([7]; 25 mg/kg day 1+4, discontinued after 14 doses (day 59)): approximately 4 weeks
survival [7, 21]: even more dramatic prolongation of survival
toxicity [7, 21]: without toxicity
leukemic involvement of bone marrow, spleen and peripheral blood [7, 22]: even more dramatic decrease in the leukemic involvement of their bone marrow, spleen, and peripheral blood
side effects [7, 22]: none of the side effects
cellular uridine, UDP and UDP-glycoconjugates ([7]; HoxA9-Meis1 leukemia cells from bone marrow of treated mice): significant reduction in cellular uridine
tolerability and efficacy ([7]; administered every 3-days, mouse model of AML): both effective against AML and well-tolerated
kinase inhibitory activity ([16]; 100 nM): near-complete absence of kinase inhibitory activity
kinase inhibitory activity ([16]; 1 μM): near-complete absence of kinase inhibitory activity
tumor growth ([17]; 5 mg/kg daily IP): arrested tumor growth
tumor growth ([17]; 15 mg/kg Q3D IP): slowed tumor growth
reduction in cellular uridine levels ([17]; THP1 cells isolated from treated mice vs vehicle): 90 % AUC
differentiation of explanted THP1 cells (CD11b expression) ([17]; tumors explanted after 10 days of treatment): marked differentiation
tolerated dose [18]: up to 15 mg/kg
toxicity [19]: weight loss and thrombocytopenia
